Experimental data published in article PMC9170038.

What was measured:
[1] = test system: FMN aptamer, RNA-MaP condition construct (RNA, aptamer) GGAAAGGCGUGUAGGAUAUGCUUCGGCAGAAGGACACGCCAAAGAAACAACAACAACAAC; assay: 1M7 chemical mapping; conditions: 80 mM KCl, 4 mM MgCl2; 100 mM Tris-HCl, pH 7.5, 37 °C
[2] = test system: BC_JL-sng2-3.09 (RNA, aptamer) GGGUAUGUCGCAGAAGUAGCUAUCGGAGGAUAUUCAUACCGGAAACGGACAUGAGGAUCACCCAUGUGGCGAAAGCCUUGGGAGAAGGCUGAUAGCUACAACUGCGACAUACCCAAAAAAAAAAAAAAAAAAAAAAAAA; assay: flow cytometry of RNA beads with MS2 protein; DMS chemical mapping; conditions: RNA immobilised on beads; reversible over 80 FMN buffer exchanges
[3] = test system: FMN aptamer, Light-up construct (RNA, aptamer) GGGAACGUCUCCGAGUAGGAGACGAAGGGAGAGUGGCAGCUUACAAUUCCAGCCGACCACUGAAAUACUCUAGAGGAUAUGACAGACAAAGUCUGUCAGAAGGCUAGAGCAGUGGGUAACGAAUGCUGGAAAAGUGGGCUGUUGCUUUUCCAAGCUUAUCGAGUAGAUAAGCAAAAAGAAACAACAACAACAAC; assay: DMS chemical mapping; conditions: 5 mM MgCl2, 1x PBS, pH 6.1, 24 °C

Kd [1]: 1.71 ± 0.60/-0.44 μM
binding [2]: yes
Kd [3]: 1.57 ± 0.58/-0.41 μM
Structure (SMILES): Cc1cc2nc3c(=O)[nH]c(=O)nc-3n(C[C@H](O)[C@H](O)[C@H](O)COP(=O)(O)O)c2cc1C
